Measured values reported in US20220169639A1 (priority 2018, published 2022).

How the values were obtained:
[1] = test system: HBV (HBsAg) in HBV-infected PHH; assay: Cryopreserved primary human hepatocytes (PHH) HBV infection assay, extracellular HBsAg (CLIA); type: cell-based; settings: Hepatitis B virus, Hepatocyte, 216 h, read-out: HBsAg IC50
Method: This assay is used to confirm the anti-HBV effect of the compounds in HBV PHH infection assay. Cryopreserved PHH (BioreclamationIVT, Lot YJM) was thawed at 37° C. and gently transferred into pre-warmed InVitroGRO HT medium (BioreclamationIVT, Cat. S03317). The mixture was centrifuged at 70 relative centrifugal force (RCF) for 3 minutes at RT, and the supernatant was discarded. Pre-warmed InVitroGRO CP medium (BioreclamationIVT, Cat #S03316) was added to the cell pellet to gently re-suspend cells. The cells were seeded at the density of 5.8×10^4 cells per well to collagen I coated 96-well plate (Gibco, Cat. A1142803) with the InVitroGRO CP medium. All plates were incubated at 37° C. with 5% CO2 and 85% humidity.
At 20 hours after plating, the medium was changed to PHH culture medium (Dulbecco's Modified Eagle Medium (DMEM)/F12 (1:1) (Gibco, Cat. 11320-033), 10% fetal bovine serum (Gibco Cat. 10099141), 100 U/mL penicillin, 100 μg/mL streptomycin (Gibco, Cat. 151401-122), 5 ng/mL human epidermal growth factor (Invitrogen Cat. PHG0311L), 20 ng/mL dexamethasone (Sigma, Cat. D4902) and 250 ng/mL human recombinant insulin (Gibco, Cat. 12585-014)). And the cells were incubated at 37° C. with 5% CO2 and 85% humidity for 4 hours. The medium was then changed to pre-warmed PHH culture medium containing 4% polyethylene glycol (PEG) MW8000 (Sigma, Cat. P1458-50ML) and 1% DMSO (Sigma, Cat. D2650). 5.8×10^6 genomic equivalents of HBV were added into the medium.
At 24 hours post-infection, the cells were gently washed with PBS and refreshed with PHH culture medium supplemented with 1% DMSO, and 0.25 mg/mL Matrix gel (Corning, Cat. 356237) at 200 μL per well. All plates were immediately placed in at 37° C. CO2 incubator. 24 hours later, serial dilutions of compounds made with DMSO were further diluted with the same culture medium (PHH culture medium supplemented with 1% DMSO and 0.25 mg/mL Matrix gel as described above) before they were added to the cells to reach desired final compound concentrations and 1% DMSO concentration. The medium containing the compounds were refreshed every three days.
At 9 days post-compound treatment, extracellular HBsAg level were measured with Chemiluminescence Immuno Assay (CLIA) kit (Autobio, HBsAg Quantitative CLIA). Extracellular HBV DNA was extracted by MagNA Pure 96 system (Roche) and then determined
HBsAg IC50 and HBV DNA IC50 values were derived from the dose-response curve using 4 parameter logistic curve fit method. The compounds of formula (I) have HBsAg IC50<20 μM, particularly <1 μM; and HBV DNA IC50<50 μM. Results of Cryopreserved PHH assay are given in TableBIO2.

[2] = test system: HBeAg (surrogate marker for cccDNA) in HepDES19 cells; assay: Engineered HepDES19 primary screen assay (HBeAg ELISA); type: cell-based, HBV; settings: Hepatitis B virus, 120 h, HBeAg in culture supernatant, 5 days incubation, read-out: IC50 (HepDES19 primary screen assay, inhibition of extracellular HBeAg level)
How it was run: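 HepDES19 cells pre-induced by Tet withdrawal for 8 days, frozen, then seeded and dosed after 24 h with half-log compound dilutions (1% DMSO final). After 5 days at 37 °C, HBeAg measured by ELISA and viability by CCK-8; IC50 from 4-parameter logistic fit.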

| SMILES | IC50 [1] [nM] | IC50 [2] [nM] |
| --- | --- | --- |
| O=C(O)C(=O)NCC(O)COc1cc(C(F)(F)F)ccc1-c1cc(=O)c2cccc(Cl)c2o1 (centres unmarked) [Example 166, 2-[[3-[2-(8-chloro-4-oxo-chromen-2-yl)-5-(trifluoromethyl)phenoxy]-2-hydroxy-propyl]amino]-2-oxo-acetic acid] | 3030 | 1570 |
| O=C(O)C1CN(CCCOc2cc(Br)ccc2-c2cc(=O)c3cccc(Cl)c3o2)CCO1 (centres unmarked) [Example 002, 4-[3-[5-bromo-2-(8-chloro-4-oxo-chromen-2-yl)phenoxy]propyl]morpholine-2-carboxylic acid] | 4010 | 250 |
| NC(=O)CNCCOc1cc(C(F)(F)F)ccc1-c1cc(=O)c2cccc(Cl)c2o1 [Example 167, 2-[2-[2-(8-chloro-4-oxo-chromen-2-yl)-5-(trifluoromethyl)phenoxy]ethylamino]acetamide] | 7940 | 3300 |
| O=C(O)CNCCCOc1cc(C(F)(F)F)ccc1-c1cc(=O)c2cccc(Cl)c2o1 [Example 125, 2-[3-[2-(8-chloro-4-oxo-chromen-2-yl)-5-(trifluoromethyl)phenoxy]propylamino]acetic acid] | 3190 | 2030 |
| O=C(O)C1CCN(CCCOc2cc(Br)ccc2-c2cc(=O)c3cccc(Cl)c3o2)C1 (centres unmarked) [Example 001, 1-[3-[5-bromo-2-(8-chloro-4-oxo-chromen-2-yl)phenoxy]propyl]pyrrolidine-3-carboxylic acid] | 5430 | 350 |
| O=C(O)[C@H]1CCN(CC(O)COc2cc(Br)ccc2-c2cc(=O)c3cccc(Cl)c3o2)C1 (stereo partly drawn) [Example 164, (3S)-1-[3-[5-bromo-2-(8-chloro-4-oxo-chromen-2-yl)phenoxy]-2-hydroxy-propyl]pyrrolidine-3-carboxylic acid] | 9660 | 2960 |
| O=C(O)C1CN(CCOc2cc(Br)ccc2-c2cc(=O)c3cccc(Cl)c3o2)CCO1 (centres unmarked) [Example 023, 4-[2-[5-bromo-2-(8-chloro-4-oxo-chromen-2-yl)phenoxy]ethyl]morpholine-2-carboxylic acid] | 4950 | 130 |
| O=C(O)C1CC(NCCCOc2cc(C(F)(F)F)ccc2-c2cc(=O)c3cccc(Cl)c3o2)C1 (centres unmarked) [Example 006, 3-[3-[2-(8-chloro-4-oxo-chromen-2-yl)-5-(trifluoromethyl)phenoxy]propylamino]cyclobutanecarboxylic acid] | 3820 | 4680 |
| O=c1cc(-c2ccc(C(F)(F)F)cc2OCCCN2C[C@@H](O)[C@@H](O)C2)oc2c(Cl)cccc12 [Example 077, 8-chloro-2-[2-[3-[(3R,4S)-3,4-dihydroxypyrrolidin-1-yl]propoxy]-4-(trifluoromethyl)phenyl]chromen-4-one] | 2180 | 50 |
| CC(C)[C@@H](NCCOc1cc(C(F)(F)F)ccc1-c1cc(=O)c2cccc(Cl)c2o1)C(=O)O [Example 036, (2R)-2-[2-[2-(8-chloro-4-oxo-chromen-2-yl)-5-(trifluoromethyl)phenoxy]ethylamino]-3-methyl-butanoic acid] |  | 2030 |
| O=C(O)C1CC(N(CCCOc2cc(C(F)(F)F)ccc2-c2cc(=O)c3cccc(Cl)c3o2)S(=O)(=O)C2CC2)C1 (centres unmarked) [Example 139, 3-[3-[2-(8-chloro-4-oxo-chromen-2-yl)-5-(trifluoromethyl)phenoxy]propyl-cyclopropylsulfonyl-amino]cyclobutanecarboxylic acid] |  | 10200 |
| CS(=O)(=O)NC(=O)[C@H]1CCN(CCOc2cc(C(F)(F)F)ccc2-c2cc(=O)c3cccc(Cl)c3o2)C1 [Example 071, (3S)-1-[2-[2-(8-chloro-4-oxo-chromen-2-yl)-5-(trifluoromethyl)phenoxy]ethyl]-N-methylsulfonyl-pyrrolidine-3-carboxamide] |  | 1030 |
| CS(=O)(=O)NC(=O)[C@@H]1CCN(CCOc2cc(C(F)(F)F)ccc2-c2cc(=O)c3cccc(Cl)c3o2)C1 [Example 070, (3R)-1-[2-[2-(8-chloro-4-oxo-chromen-2-yl)-5-(trifluoromethyl)phenoxy]ethyl]-N-methylsulfonyl-pyrrolidine-3-carboxamide] |  | 1010 |
| O=C(NS(=O)(=O)C1CC1)[C@@H]1CCN(CCCOc2cc(C(F)(F)F)ccc2-c2cc(=O)c3cccc(Cl)c3o2)C1 [Example 067, (3R)-1-[3-[2-(8-chloro-4-oxo-chromen-2-yl)-5-(trifluoromethyl)phenoxy]propyl]-N-cyclopropylsulfonyl-pyrrolidine-3-carboxamide] |  | 8400 |
| CS(=O)(=O)NC(=O)C1CN(CCOc2cc(C(F)(F)F)ccc2-c2cc(=O)c3cccc(Cl)c3o2)CCO1 (centres unmarked) [Example 068, 4-[2-[2-(8-chloro-4-oxo-chromen-2-yl)-5-(trifluoromethyl)phenoxy]ethyl]-N-methylsulfonyl-morpholine-2-carboxamide] |  | 5510 |
| CCOC(=O)C(=O)NCCCOc1cc(C(F)(F)F)ccc1-c1cc(=O)c2cccc(Cl)c2o1 [Example 100, ethyl 2-[3-[2-(8-chloro-4-oxo-chromen-2-yl)-5-(trifluoromethyl)phenoxy]propylamino]-2-oxo-acetate] |  | 3840 |
| Cc1ccc(-c2cc(=O)c3cccc(Cl)c3o2)c(OCCNC(=O)NCC(=O)O)c1 [Example 154] |  | 1430 |
| O=C(O)C(=O)NC1(COc2cc(C(F)(F)F)ccc2-c2cc(=O)c3cccc(Cl)c3o2)CC1 [Example 110, 2-[[1-[[2-(8-chloro-4-oxo-chromen-2-yl)-5-(trifluoromethyl)phenoxy]methyl]cyclopropyl]amino]-2-oxo-acetic acid] |  | 3760 |
| O=C(O)C12CC(NCCOc3cc(Br)ccc3-c3cc(=O)c4cccc(Cl)c4o3)(C1)C2 [Example 026, 3-[2-[5-bromo-2-(8-chloro-4-oxo-chromen-2-yl)phenoxy]ethylamino]bicyclo[1.1.1]pentane-1-carboxylic acid] |  | 460 |
| O=C(O)C1CCN(CCOc2ccccc2-c2cc(=O)c3cccc(Cl)c3o2)CC1 [Example 029, 1-[2-[2-(8-chloro-4-oxo-chromen-2-yl)phenoxy]ethyl]piperidine-4-carboxylic acid] |  | 1850 |
| CCOC(=O)C(=O)N(C)CCOc1cc(C)ccc1-c1cc(=O)c2cccc(Cl)c2o1 [Example 137, ethyl 2-[2-[2-(8-chloro-4-oxo-chromen-2-yl)-5-methyl-phenoxy]ethyl-methyl-amino]-2-oxo-acetate] |  | 3400 |
| O=C(O)c1cccc(CN2CCC(Oc3cc(Br)ccc3-c3cc(=O)c4cccc(Cl)c4o3)CC2)c1 [Example 128] |  | 270 |
| O=c1cc(-c2ccc(C(F)(F)F)cc2OCCCNC2CCS(=O)(=O)CC2)oc2c(Cl)cccc12 [Example 078, 8-chloro-2-[2-[3-[(1,1-dioxothian-4-yl)amino]propoxy]-4-(trifluoromethyl)phenyl]chromen-4-one] |  | 7800 |
| O=C(O)CN(CCCOc1cc(C(F)(F)F)ccc1-c1cc(=O)c2cccc(Cl)c2o1)S(=O)(=O)c1ccccc1 [Example 143] |  | 2420 |
| O=C(O)[C@H]1CCCN1CCCOc1cc(Br)ccc1-c1cc(=O)c2cccc(Cl)c2o1 [Example 003, (2R)-1-[3-[5-bromo-2-(8-chloro-4-oxo-chromen-2-yl)phenoxy]propyl]pyrrolidine-2-carboxylic acid] |  | 2410 |
| Cc1ccc(-c2cc(=O)c3cccc(Cl)c3o2)c(OCCN2CCN(C)C2=O)c1 [Example 092, 1-[2-[2-(8-chloro-4-oxo-chromen-2-yl)-5-methyl-phenoxy]ethyl]-3-methyl-imidazolidin-2-one] |  | 220 |
